The assay addresses T1, human C1r (Homo sapiens, UniProt P00736).
T1 construct: Recombinant human C1r (375–705 aa) fused with both the N-terminal IgG signal peptide; IgG signal peptide (N); His tag (C); made in house; host or cells: HEK293 cells
T1 sequence (P00736 375-705): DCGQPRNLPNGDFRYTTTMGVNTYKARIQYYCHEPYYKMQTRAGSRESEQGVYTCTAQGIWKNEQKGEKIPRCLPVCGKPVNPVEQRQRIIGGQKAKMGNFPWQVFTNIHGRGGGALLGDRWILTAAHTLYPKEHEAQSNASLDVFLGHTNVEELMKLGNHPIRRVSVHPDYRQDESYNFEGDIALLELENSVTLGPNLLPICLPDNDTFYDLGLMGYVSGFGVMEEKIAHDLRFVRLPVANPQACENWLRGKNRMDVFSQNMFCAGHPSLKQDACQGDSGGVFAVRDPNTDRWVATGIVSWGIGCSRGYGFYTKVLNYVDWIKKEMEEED
Kind of assay: Human C1r enzyme assay. As to conditions: supplementary csv. It counts as biochemical. The text has this:
Recombinant human C1r (375–705 aa) fused with both the N-terminal IgG signal peptide and the C-terminal His tag was expressed in HEK293 cells and purified. Human C1r assay conditions were the same as for human C1s, except that the enzyme solution concentration was 3 nmol/L and the substrate peptide was 250 μmol/L Z-Gly-Arg-SBzl (custom synthesis from Peptide Institute, Osaka, Japan) instead of Z-Lys-SBzl.

In the case of `Cc1cc([C@H]2CN(c3cc(F)c4c(N)nncc4c3)CCN2c2cccc(F)c2)no1` [Compound (R)-8, 8-Fluoro-6-[(3R)-4-(3-fluorophenyl)-3-(5-methyl-1,2-oxazol-3-yl)piperazin-1-yl]phthalazin-1-amine], the IC50 was above 30 µM.
